# From ChEMBL document CHEMBL4828715, “Discovery, Structure-Activity Relationships, and In Vivo Evaluation of Novel Aryl Amides as Brain Penetrant Adaptor Protein 2-Associated Kinase 1 (AAK1) Inhibitors for the Treatment of Neuropathic Pain” (J Med Chem, 2021)
# Calls of active or inactive are those of the source. No cut-off for these calls is given here.
# Key:
# [1] = Permeability of the compound across apical to basolateral membrane in human Caco-2 cells incubated for 2 hrs by LC-MS/MS analysis
# [2] = Metabolic stability in human liver microsomes assessed as parent compound remaining at 0.5 uM incubated for 10 mins in presence of NADPH by LC-MS/MS analysis; assay type: ADME, Microsome; details: read-out: Stability
# [3] = Metabolic stability in mouse liver microsomes assessed as parent compound remaining at 0.5 uM incubated for 10 mins in presence of NADPH by LC-MS/MS analysis; assay type: ADME, Microsome; details: read-out: Stability
# [4] = target: AP2-associated protein kinase 1 (Homo sapiens, UniProt Q2M2I8); test: Inhibition of human AAK1 expressed in HEK293 cells assessed as suppression of AP2 phosphorylation measured after 3 hrs by Western blot analysis; assay type: cell-based
# [5] = Permeability of the compound at pH 7.4 incubated for 4 hrs by PAMPA-based UV spectrophotometry; assay type: ADME; details: PAMPA, pH 7.4, read-out: permeability
# [6] = Protein binding in mouse plasma assessed as unbound fraction at 10 uM measured after 5 hrs by equilibrium dialysis method
# [7] = Drug concentration in C57BL6 mouse at 10 ml/kg, sc measured after 2 hrs by LC-MS/MS analysis; assay type: ADME, organism-based; details: plasma
# [8] = target: Cyclin-G-associated kinase (Homo sapiens) (UniProt O14976); test: Inhibition of wild-type human partial length GAK (G13 to Y338 residues) expressed in bacterial expression system assessed as residual binding level at 1 uM by Kinomescan method relative to control
# [9] = target: T1, MAP kinase-interacting serine/threonine-protein kinase 2 (Homo sapiens, UniProt Q9HBH9); test: Inhibition of wild-type human partial length MKNK2 (G63 to S388 residues) expressed in mammalian expression system assessed as residual binding level at 1 uM by Kinomescan method relative to control
# [10] = target: SRSF protein kinase 3 (Homo sapiens) (UniProt Q9UPE1); test: Inhibition of wild-type human partial length SRPK3 (P41 to P567 residues) expressed in bacterial expression system assessed as residual binding level at 1 uM by Kinomescan method relative to control
# [11] = target: cAMP-dependent protein kinase catalytic subunit PRKX (Homo sapiens) (UniProt P51817); test: Inhibition of wild-type human partial length PRKX (M1 to F358 residues) expressed in bacterial expression system assessed as residual binding level at 1 uM by Kinomescan method relative to control
# [12] = target: Serine/threonine-protein kinase RIO1 (Homo sapiens) (UniProt Q9BRS2); test: Inhibition of wild-type human full length RIOK1 (M1 to K568 residues) expressed in bacterial expression system assessed as residual binding level at 1 uM by Kinomescan method relative to control
# [13] = target: Citron Rho-interacting kinase (Homo sapiens, UniProt O14578); test: Inhibition of CRIK (unknown origin) by Kinomescan method
# [14] = target: T1, MAP kinase-interacting serine/threonine-protein kinase 2; test: Inhibition of wild-type human partial length MKNK2 (G63 to S388 residues) expressed in mammalian expression system by Kinomescan method
# [15] = Inhibition of PKA (unknown origin); set-up: species or system Homo sapiens
# [16] = target: Protein kinase C theta type (Homo sapiens, UniProt Q04759); test: Inhibition of PKCtheta (unknown origin)
# [17] = target: Alpha-2C adrenergic receptor (Homo sapiens, UniProt P18825); test: Inhibition of alpha 2C adrenergic receptor (unknown origin)
# [18] = target: Mu-type opioid receptor (Homo sapiens, UniProt P35372); test: Inhibition of mu opioid receptor (unknown origin)
# [19] = target: Kappa-type opioid receptor (Homo sapiens, UniProt P41145); test: Inhibition of kappa opioid receptor (unknown origin)
# [20] = target: AP2-associated protein kinase 1 (Mus musculus) (UniProt Q3UHJ0); test: In vivo inhibition of AAK1 in C57BL6 mouse assessed as suppression of mu2 phosphorylation in brain lysate at 10 mg/kg, sc measured after 30 mins by Western blot analysis relative to control; assay type: functional, organism-based
# [21] = target: AP2-associated protein kinase 1 (Mus musculus) (UniProt Q3UHJ0); test: In vivo inhibition of AAK1 in C57BL6 mouse assessed as suppression of mu2 phosphorylation in brain lysate at 30 mg/kg, sc measured after 30 mins by Western blot analysis relative to control; assay type: functional, organism-based
# [22] = target: AP2-associated protein kinase 1 (Mus musculus) (UniProt Q3UHJ0); test: In vivo inhibition of AAK1 in C57BL6 mouse assessed as suppression of mu2 phosphorylation in brain lysate at 30 mg/kg, sc measured after 2 hrs by Western blot analysis; assay type: functional, organism-based
# [23] = Drug concentration in plasma of C57BL6 mouse at 3 mg/kg, sc; assay type: ADME, organism-based; details: in vivo
# [24] = Drug concentration in plasma of C57BL6 mouse at 60 mg/kg, sc; assay type: ADME, organism-based; details: in vivo
# [25] = tested on: Mus musculus; test: Antinociceptive activity against formalin-induced nociceptive behavior in C57BL6 mouse assessed as reduction in phase 2 hind paw flinching at 30 mg/kg, sc administered 60 mins prior to formalin challenge by formalin test; assay type: functional, organism-based
# [26] = tested on: Mus musculus; test: Antinociceptive activity against formalin-induced nociceptive behavior in C57BL6 mouse assessed as reduction in phase 2 hind paw licking/biting at 30 mg/kg, sc administered 60 mins prior to formalin challenge by formalin test; assay type: functional, organism-based
# [27] = tested on: Mus musculus; test: Antinociceptive activity against formalin-induced nociceptive behavior in C57BL6 mouse assessed as reduction in phase 2 hind paw flinching at 10 mg/kg, sc administered 60 mins prior to formalin challenge by formalin test; assay type: functional, organism-based
# [28] = tested on: Rattus norvegicus; test: Antinociceptive activity in Sprague-Dawley rat model of chronic constriction injury-induced neuropathic pain assessed as reduction in paw withdrawal latency at 60 mg/kg, sc by Von Frey test; assay type: functional, organism-based
# [29] = tested on: Rattus norvegicus; test: Antinociceptive activity in Sprague-Dawley rat model of chronic constriction injury-induced neuropathic pain assessed as reduction in mechanical hyperalgesia 60 mg/kg, sc by Von Frey test relative to control; assay type: functional; set-up: scale not given: the % may be the effect or the level left
# [30] = tested on: Rattus norvegicus; test: Reversal of chronic constriction injury-induced mechanical allodynia in Sprague-Dawley rat model of neuropathic pain at 60 mg/kg, sc measured up to 180 mins relative to control; assay type: functional; details: time min <=180
# [31] = Drug concentration in plasma of Sprague-Dawley rat model of chronic constriction injury-induced neuropathic pain at 3 mg/kg, sc; assay type: ADME, organism-based; details: in vivo
# [32] = Drug concentration in plasma of Sprague-Dawley rat model of chronic constriction injury-induced neuropathic pain at 10 mg/kg, sc; assay type: ADME, organism-based; details: in vivo
# [33] = Drug concentration in brain of Sprague-Dawley rat model of chronic constriction injury-induced neuropathic pain at 1 mg/kg, sc; assay type: ADME, organism-based; details: in vivo, read-out: Ct
# [34] = Drug concentration in brain of Sprague-Dawley rat model of chronic constriction injury-induced neuropathic pain at 10 mg/kg, sc; assay type: ADME, organism-based; details: in vivo, read-out: Ct
# [35] = Unbound drug concentration in plasma of Sprague-Dawley rat model of chronic constriction injury-induced neuropathic pain at 3 mg/kg, sc; assay type: ADME, organism-based; details: in vivo
# [36] = Unbound drug concentration in brain of Sprague-Dawley rat model of chronic constriction injury-induced neuropathic pain at 1 mg/kg, sc; assay type: ADME, organism-based; details: in vivo
# [37] = Unbound drug concentration in brain of Sprague-Dawley rat model of chronic constriction injury-induced neuropathic pain at 10 mg/kg, sc; assay type: ADME, organism-based; details: in vivo
# [38] = Drug concentration in Sprague-Dawley rat plasma at 30 mg/kg, sc measured after 190 mins; assay type: ADME, organism-based
# Sequence of AP2-associated protein kinase 1 (Mus musculus) (Q3UHJ0 whole entry, looked up): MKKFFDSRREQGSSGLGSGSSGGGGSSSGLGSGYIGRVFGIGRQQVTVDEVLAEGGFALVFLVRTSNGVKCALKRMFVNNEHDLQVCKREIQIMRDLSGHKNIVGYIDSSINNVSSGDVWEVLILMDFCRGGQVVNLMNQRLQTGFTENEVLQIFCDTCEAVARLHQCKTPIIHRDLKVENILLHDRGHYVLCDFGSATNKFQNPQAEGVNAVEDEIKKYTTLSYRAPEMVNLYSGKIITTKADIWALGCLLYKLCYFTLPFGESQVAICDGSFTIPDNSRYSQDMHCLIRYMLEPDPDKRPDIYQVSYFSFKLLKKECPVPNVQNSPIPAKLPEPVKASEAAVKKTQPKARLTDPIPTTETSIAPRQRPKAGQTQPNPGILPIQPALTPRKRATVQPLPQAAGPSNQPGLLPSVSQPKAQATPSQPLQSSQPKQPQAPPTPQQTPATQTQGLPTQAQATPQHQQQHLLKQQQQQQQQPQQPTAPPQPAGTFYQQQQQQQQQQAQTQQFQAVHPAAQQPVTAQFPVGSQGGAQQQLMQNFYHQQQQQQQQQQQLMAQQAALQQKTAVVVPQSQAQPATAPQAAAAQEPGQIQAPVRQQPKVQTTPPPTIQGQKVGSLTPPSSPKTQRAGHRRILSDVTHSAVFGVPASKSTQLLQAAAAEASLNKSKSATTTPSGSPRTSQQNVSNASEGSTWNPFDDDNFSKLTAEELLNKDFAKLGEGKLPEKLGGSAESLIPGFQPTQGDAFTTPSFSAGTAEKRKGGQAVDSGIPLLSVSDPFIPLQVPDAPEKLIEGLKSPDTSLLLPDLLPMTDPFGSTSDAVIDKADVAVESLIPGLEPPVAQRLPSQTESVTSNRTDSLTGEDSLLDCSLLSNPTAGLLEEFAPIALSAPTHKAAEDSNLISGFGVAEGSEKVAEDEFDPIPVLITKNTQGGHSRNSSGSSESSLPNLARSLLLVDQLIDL
# Sequence of AP2-associated protein kinase 1 (Q2M2I8 whole entry): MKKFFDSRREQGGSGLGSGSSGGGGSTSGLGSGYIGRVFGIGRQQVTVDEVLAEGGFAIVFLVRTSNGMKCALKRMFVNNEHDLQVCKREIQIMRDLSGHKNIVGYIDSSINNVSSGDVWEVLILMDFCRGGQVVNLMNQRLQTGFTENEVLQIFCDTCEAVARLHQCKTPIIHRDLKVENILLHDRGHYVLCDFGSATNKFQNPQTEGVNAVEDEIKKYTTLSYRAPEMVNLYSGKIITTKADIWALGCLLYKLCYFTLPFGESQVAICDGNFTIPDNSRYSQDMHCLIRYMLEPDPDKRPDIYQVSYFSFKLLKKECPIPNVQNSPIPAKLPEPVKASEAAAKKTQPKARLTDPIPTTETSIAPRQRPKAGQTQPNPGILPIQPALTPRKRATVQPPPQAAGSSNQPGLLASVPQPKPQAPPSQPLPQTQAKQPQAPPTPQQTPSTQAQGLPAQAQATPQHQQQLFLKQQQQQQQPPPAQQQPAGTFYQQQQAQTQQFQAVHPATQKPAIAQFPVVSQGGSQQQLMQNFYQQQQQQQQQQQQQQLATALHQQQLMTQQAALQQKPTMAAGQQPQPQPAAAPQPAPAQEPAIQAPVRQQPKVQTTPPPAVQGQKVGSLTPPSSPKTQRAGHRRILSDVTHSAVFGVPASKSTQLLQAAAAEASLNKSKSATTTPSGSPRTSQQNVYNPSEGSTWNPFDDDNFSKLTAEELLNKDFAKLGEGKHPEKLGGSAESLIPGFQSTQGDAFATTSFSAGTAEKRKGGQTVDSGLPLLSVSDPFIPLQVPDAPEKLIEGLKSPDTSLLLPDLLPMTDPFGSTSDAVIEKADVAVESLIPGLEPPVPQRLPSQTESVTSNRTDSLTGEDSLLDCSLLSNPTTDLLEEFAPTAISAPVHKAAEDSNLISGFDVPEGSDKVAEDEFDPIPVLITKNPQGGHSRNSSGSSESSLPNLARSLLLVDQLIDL
# Sequence of Citron Rho-interacting kinase (O14578 whole entry, the tested form may be a part): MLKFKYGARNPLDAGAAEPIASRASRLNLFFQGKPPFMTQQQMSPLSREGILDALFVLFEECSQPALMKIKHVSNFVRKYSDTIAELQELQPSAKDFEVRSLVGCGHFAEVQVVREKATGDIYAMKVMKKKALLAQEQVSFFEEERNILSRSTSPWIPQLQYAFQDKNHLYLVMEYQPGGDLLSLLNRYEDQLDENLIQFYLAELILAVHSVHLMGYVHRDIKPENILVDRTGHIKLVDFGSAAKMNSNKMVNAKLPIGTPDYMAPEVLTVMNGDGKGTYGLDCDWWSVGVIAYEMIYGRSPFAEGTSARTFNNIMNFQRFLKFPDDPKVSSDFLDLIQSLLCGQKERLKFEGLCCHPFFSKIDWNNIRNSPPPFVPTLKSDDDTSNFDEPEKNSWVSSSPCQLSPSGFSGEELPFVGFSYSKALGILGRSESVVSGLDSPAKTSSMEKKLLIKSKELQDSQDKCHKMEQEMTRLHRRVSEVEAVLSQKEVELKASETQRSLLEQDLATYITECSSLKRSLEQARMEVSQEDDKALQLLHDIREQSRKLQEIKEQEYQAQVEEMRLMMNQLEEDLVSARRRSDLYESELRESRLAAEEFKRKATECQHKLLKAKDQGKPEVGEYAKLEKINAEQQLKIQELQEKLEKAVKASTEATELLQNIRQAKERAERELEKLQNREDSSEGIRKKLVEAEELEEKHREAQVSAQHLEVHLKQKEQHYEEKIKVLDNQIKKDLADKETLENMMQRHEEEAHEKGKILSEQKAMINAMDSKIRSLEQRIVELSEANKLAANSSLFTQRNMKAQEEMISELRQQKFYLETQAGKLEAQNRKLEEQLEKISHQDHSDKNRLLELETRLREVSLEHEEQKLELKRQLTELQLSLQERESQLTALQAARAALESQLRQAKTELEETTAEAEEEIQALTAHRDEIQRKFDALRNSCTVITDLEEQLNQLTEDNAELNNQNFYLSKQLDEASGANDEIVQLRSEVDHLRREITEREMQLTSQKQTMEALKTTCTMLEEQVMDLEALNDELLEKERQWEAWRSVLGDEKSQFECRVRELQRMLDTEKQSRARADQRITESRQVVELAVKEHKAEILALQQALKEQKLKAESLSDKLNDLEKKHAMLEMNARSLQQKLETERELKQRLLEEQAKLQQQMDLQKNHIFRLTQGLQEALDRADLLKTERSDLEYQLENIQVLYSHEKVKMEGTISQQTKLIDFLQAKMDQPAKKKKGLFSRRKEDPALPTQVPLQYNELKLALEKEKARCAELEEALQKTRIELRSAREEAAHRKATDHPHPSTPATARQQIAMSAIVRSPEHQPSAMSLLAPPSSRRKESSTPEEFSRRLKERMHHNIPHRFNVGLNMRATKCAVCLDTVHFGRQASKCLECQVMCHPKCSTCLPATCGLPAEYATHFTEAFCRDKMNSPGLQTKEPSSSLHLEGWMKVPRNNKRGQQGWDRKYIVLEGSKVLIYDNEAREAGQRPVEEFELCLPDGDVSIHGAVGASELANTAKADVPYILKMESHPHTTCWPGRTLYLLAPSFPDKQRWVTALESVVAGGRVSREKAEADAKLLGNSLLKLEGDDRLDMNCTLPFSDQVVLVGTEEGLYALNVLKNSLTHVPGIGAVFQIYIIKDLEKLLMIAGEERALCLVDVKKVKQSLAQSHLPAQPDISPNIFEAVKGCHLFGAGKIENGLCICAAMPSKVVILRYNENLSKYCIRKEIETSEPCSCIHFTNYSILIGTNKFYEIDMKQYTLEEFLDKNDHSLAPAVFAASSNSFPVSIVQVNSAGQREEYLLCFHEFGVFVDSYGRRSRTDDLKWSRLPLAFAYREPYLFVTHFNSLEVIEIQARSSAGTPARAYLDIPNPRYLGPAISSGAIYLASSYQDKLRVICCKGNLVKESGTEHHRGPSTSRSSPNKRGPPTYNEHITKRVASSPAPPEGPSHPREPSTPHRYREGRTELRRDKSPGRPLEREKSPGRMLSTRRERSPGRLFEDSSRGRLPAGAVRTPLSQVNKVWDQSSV
# Sequence of SRSF protein kinase 3 (Homo sapiens) (Q9UPE1 whole entry, the tested form may be a part): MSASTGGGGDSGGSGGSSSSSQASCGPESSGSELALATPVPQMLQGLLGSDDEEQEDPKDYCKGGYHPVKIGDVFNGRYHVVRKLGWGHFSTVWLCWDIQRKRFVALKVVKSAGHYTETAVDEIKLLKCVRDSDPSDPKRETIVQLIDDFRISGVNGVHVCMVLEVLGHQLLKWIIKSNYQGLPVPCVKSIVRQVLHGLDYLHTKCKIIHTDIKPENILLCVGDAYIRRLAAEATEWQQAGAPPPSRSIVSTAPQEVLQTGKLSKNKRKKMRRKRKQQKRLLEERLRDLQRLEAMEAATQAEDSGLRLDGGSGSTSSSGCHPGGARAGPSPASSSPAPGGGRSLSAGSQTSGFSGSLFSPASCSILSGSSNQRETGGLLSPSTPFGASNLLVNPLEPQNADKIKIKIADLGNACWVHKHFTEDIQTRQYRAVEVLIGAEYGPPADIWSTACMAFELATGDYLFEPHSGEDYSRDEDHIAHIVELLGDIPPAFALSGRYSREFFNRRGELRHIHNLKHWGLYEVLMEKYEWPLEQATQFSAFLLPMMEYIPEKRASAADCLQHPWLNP
# Sequence of cAMP-dependent protein kinase catalytic subunit PRKX (Homo sapiens) (P51817 whole entry, the tested form may be a part): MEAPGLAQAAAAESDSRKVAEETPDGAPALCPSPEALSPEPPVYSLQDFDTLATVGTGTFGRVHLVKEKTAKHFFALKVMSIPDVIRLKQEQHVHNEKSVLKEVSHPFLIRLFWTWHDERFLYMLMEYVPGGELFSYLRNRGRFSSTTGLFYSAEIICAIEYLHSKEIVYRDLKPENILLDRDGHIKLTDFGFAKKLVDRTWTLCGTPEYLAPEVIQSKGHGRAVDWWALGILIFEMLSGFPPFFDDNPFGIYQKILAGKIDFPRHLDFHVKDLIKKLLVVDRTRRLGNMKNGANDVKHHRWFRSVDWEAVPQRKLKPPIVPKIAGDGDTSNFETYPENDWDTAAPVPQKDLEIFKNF
smiles,measurement,setting,value
CC(C)C[C@@H](N)C(=O)Nc1ccc(-c2cnco2)c(OC(F)F)c1,Papp A→B at 2 h,[1],12.9 ×10⁻⁶ cm/s
same,"remaining at 10 min, 0.5 µM",[2],84%
same,"remaining at 10 min, 0.5 µM",[3],46%
same,IC50,[4],51 nM
same,Papp at 4 h,[5],96.7 ×10⁻⁶ cm/s
same,"fraction unbound at 5 h, 10 µM",[6],0.041
same,concentration at 2 h,[7],17.7 µM
same,Activity,[8],21%
same,Activity,[9],1.4%
same,Activity,[10],7.6%
same,Activity,[11],19%
same,Activity,[12],7.6%
same,IC50,[13],120 nM
same,IC50,[14],428 nM
same,IC50,[15],570 nM
same,IC50,[16],1330 nM
same,IC50,[17],> 30000 nM
same,IC50,[18],> 30000 nM
same,IC50,[19],> 30000 nM
same,inhibition,[20],56%
same,inhibition,[21],62%
same,inhibition,[22],Active
same,concentration,[23],2.6 µM
same,concentration,[24],77 µM
same,Activity,[25],Active
same,Activity,[26],Active
same,Activity,[27],Active
same,Activity,[28],Active
same,Activity,[29],45%
same,Activity,[30],42%
same,concentration,[31],1.1 µM
same,concentration,[32],11 µM
same,concentration,[33],0.35 µM
same,concentration,[34],7 µM
same,Cp(f),[35],0.02 µM
same,Drug uptake(free),[36],0.01 µM
same,Drug uptake(free),[37],0.2 µM
same,concentration at 3.167 h,[38],3.4 µM
